According to US5861476A, “Peptides and compounds that bind to the IL-1 receptor” (Affymax Technologies N.V., priority 1995, dated 1999):
Read-outs that look alike come from different tables or passages of the source. Where a SMILES comes first, the peptide text is derived from it. Where no end group is shown, it is not given here. [ ]: non-standard residue; d: D form. pY = N[C@@H](Cc1ccc(OP(=O)(O)O)cc1)C(=O)O; 1Nal = N[C@@H](Cc1cccc2ccccc12)C(=O)O; Aze = O=C(O)[C@@H]1CCN1

Columns and labels:
[1] = target: T1, IL-1 induced E-selectin in HUVEC cells (Homo sapiens, UniProt P14778); assay: Peptide Effects on IL-1 Induced E-Selectin (HUVEC Cells); type: cell-based; settings: 120 pM IL-1α, read-out: IC50 (concentration required to inhibit 50% of IL-1 induced E-selectin expression)
T1 sequence (P14778 18-569): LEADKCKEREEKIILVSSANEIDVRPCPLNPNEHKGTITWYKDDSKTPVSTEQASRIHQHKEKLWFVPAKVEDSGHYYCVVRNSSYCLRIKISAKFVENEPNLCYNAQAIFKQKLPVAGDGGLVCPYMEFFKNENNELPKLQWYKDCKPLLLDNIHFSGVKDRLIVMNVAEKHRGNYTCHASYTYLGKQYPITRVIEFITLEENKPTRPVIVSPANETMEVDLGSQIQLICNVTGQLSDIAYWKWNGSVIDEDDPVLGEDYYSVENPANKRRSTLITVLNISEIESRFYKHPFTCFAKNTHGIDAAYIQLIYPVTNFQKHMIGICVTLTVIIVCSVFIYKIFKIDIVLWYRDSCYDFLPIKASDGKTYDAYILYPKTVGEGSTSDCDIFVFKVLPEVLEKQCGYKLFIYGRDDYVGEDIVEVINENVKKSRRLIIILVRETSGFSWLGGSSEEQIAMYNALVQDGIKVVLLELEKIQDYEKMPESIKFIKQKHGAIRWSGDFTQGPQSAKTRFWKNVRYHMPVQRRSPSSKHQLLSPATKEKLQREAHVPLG
Procedure: The compounds of the present invention were assayed for their ability to inhibit the expression of IL-1 induced E-selectin in HUVEC cells (human umbilical vein endothelial cells). HUVEC cells are grown to confluency in the wells of a 24-well microtiter plate. The compounds were serially diluted in DMEM/F12+0.1% BSA ("SFM"with 120 pM IL-1α. The cells were washed and then incubated with IL-1α and the compound to be tested for 15 minutes. The cells were again washed and incubated in SFM for 4 hours. The cells were washed and incubated with anti-selectin antibody for 30 minutes. Following antibody incubation, the cells were incubated with ^125 I Protein A and washed. The amount of ^125 I bound to the cells was then determined. The concentration of compounds required to inhibit 50% of IL-1 induced E-selectin expression is shown below.

[2] = target: T2, IL-1 induced down-regulation of the epidermal growth factor (EGF) receptor in normal human dermal fibroblasts (NHDF) (Homo sapiens, UniProt P14778); assay: Epidermal Growth Factor Receptor Down Regulation Assay; type: cell-based; settings: 37° C., in the presence of IL-1α, 125I-labeled EGF binding, read-out: IC50 (approximate concentration which blocked 50% of the IL-1 induced down regulation of the EGF receptor)
T2 sequence (P14778 18-569): T1 sequence (P14778 18-569)
Source text: The protocol set forth in Bird and Saklatvala (1989) J. Immunol. […] This assay examines the effect of the compounds of the invention on the IL-1 induced down-regulation of the epidermal growth factor (EGF) receptor as measured by the binding of ^125 I-labeled EGF to its receptor in normal human dermal fibroblasts (NHDF). […] The table below lists the approximate concentration of representative peptides of the invention which blocked 50% of the IL-1 induced down regulation of the EGF receptor. IC50 values are indicated symbolically by the symbols "-", "+", and "++". […] Those peptides which give IC50 values of less than or equal to 100 μM are given a "+", while those which give IC50 values of 500 nM or less are indicated with a "++". Those peptides which give IC50 values at or near the cutoff point for a particular symbol are indicated with a hybrid, e.g. "±". Those peptides for which IC50 values were not determined are listed as "N.D".

IL-1RtI = target: T3, IL-1RtI (Homo sapiens, UniProt P14778); assay: Inhibition of 125I-IL-1α binding to IL-1RtI (Example 3)
T3 construct: made in house; host or cells: recombinant host cells (one form soluble from baculovirus transformed host cells; another PIG-tailed and cleaved from the cell surface)
T3 sequence (P14778 18-336): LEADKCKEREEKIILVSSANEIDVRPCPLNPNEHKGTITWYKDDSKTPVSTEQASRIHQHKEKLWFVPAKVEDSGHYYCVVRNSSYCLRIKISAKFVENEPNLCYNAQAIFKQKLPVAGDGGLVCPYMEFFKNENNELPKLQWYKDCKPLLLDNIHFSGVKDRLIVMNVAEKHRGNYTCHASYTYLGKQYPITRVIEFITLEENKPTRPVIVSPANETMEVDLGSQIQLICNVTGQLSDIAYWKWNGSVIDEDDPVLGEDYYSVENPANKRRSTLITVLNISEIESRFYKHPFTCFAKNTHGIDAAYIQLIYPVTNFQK
Outline: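 Competition with 90 pM 125I-IL-1α was run in duplicate for 2 h at 4 °C in HEPES-buffered RPMI with 1% BSA, pH 7.2-7.3, against either antibody-captured truncated receptor or cells with full-length IL-1RtI. Gamma counting of NaOH-detached material gave approximate IC50; high-affinity peptides used 24-well format.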

[3] = inhibition of 125I-IL-1α binding to IL-1RtI, soluble peptide unless marked *

Row | Compound | IC50 [1] | IC50 [2] | IC50 (IL-1RtI; [3]) | IC50 (IL-1RtI)
1 | CC(=O)N[C@@H](Cc1ccccc1)C(=O)N[C@@H](CCC(=O)O)C(=O)N[C@@H](Cc1c[nH]c2ccccc12)C(=O)N[C@H](C(=O)N1CCC[C@H]1C(=O)NCC(=O)N[C@@H](Cc1ccc(O)cc1)C(=O)N[C@@H](Cc1ccc(O)cc1)C(=O)N[C@@H](CCC(N)=O)C(=O)N1CC[C@H]1C(=O)N[C@@H](Cc1ccc(O)cc1)C(N)=O)[C@@H](C)O [AcFEWTPGYYQJY--NH2] (Ac-FEWTPGYYQ[Aze]Y-NH2) | ≤ 500 nM | 500 nM |  | 
2 | CC(=O)N[C@@H](Cc1ccccc1)C(=O)N[C@@H](CCC(=O)O)C(=O)N[C@@H](Cc1c[nH]c2ccccc12)C(=O)N[C@H](C(=O)N1CCC[C@H]1C(=O)N[C@H](C)C(=O)N[C@@H](Cc1c[nH]c2ccccc12)C(=O)N[C@@H](Cc1ccc(O)cc1)C(=O)N[C@@H](CCC(N)=O)C(=O)N1CC[C@H]1C(=O)N[C@@H](Cc1ccc(O)cc1)C(N)=O)[C@@H](C)O [AcFEWTPaWYQJY--NH2] (Ac-FEWTP[dA]WYQ[Aze]Y-NH2) | ≤ 500 nM | ≤ 100000 nM |  | 
3 | CC(C)C[C@H](NC(=O)[C@@H]1CCCN1C(=O)[C@H](CC(C)C)NC(=O)[C@H](C)NC(=O)[C@H](Cc1ccc(O)cc1)NC(=O)[C@@H]1CCN1C(=O)[C@H](CCC(N)=O)NC(=O)[C@H](Cc1ccc(O)cc1)NC(=O)[C@H](Cc1c[nH]c2ccccc12)NC(=O)CNC(=O)[C@@H]1CCCN1C(=O)[C@@H](NC(=O)[C@H](Cc1c[nH]c2ccccc12)NC(=O)[C@H](CCC(=O)O)NC(=O)[C@@H](N)Cc1ccccc1)[C@@H](C)O)C(=O)O [FEWTPGWYQJYALPL] (H-FEWTPGWYQ[Aze]YALPL-OH) | ≤ 500 nM |  |  | 
4 | CC(C)C[C@H](NC(=O)[C@@H]1CCCN1C(=O)[C@H](CC(C)C)NC(=O)[C@H](C)NC(=O)[C@H](Cc1ccc(O)cc1)NC(=O)[C@@H]1CCN1C(=O)[C@H](CCC(N)=O)NC(=O)[C@H](Cc1c[nH]c2ccccc12)NC(=O)[C@H](Cc1ccc(O)cc1)NC(=O)[C@@H](NC(=O)[C@H](Cc1ccccc1)NC(=O)[C@@H](N)[C@@H](C)O)C(C)C)C(=O)O [TFVYWQJYALPL] (H-TFVYWQ[Aze]YALPL-OH) |  | > 100000 nM | ≤ 100000 nM | 
5 | CC(C)C[C@H](NC(=O)[C@@H]1CCCN1C(=O)[C@H](CC(C)C)NC(=O)[C@H](C)NC(=O)[C@H](Cc1ccc(O)cc1)NC(=O)[C@@H]1CCCN1C(=O)[C@H](CCC(N)=O)NC(=O)[C@H](Cc1c[nH]c2ccccc12)NC(=O)[C@H](Cc1ccc(O)cc1)NC(=O)[C@H](NC(=O)[C@H](Cc1ccccc1)NC(=O)[C@@H](N)[C@@H](C)O)C(C)C)C(=O)O [TFvYWQPYALPL] (H-TF[dV]YWQPYALPL-OH) |  | > 100000 nM |  | 
6 | CC(C)C[C@H](NC(=O)[C@@H]1CCCN1C(=O)[C@H](CC(C)C)NC(=O)[C@H](C)NC(=O)[C@H](Cc1ccc(O)cc1)NC(=O)[C@@H]1CCN1C(=O)[C@H](CCC(N)=O)NC(=O)[C@H](Cc1ccc(OP(=O)(O)O)cc1)NC(=O)[C@H](Cc1cccc2ccccc12)NC(=O)[C@@H](N)Cc1ccc(OP(=O)(O)O)cc1)C(=O)O [pY(1Nap)pYQJYALPL] (H-[pY][1Nal][pY]Q[Aze]YALPL-OH) |  | ≤ 500 nM |  | < 500 nM
7 | YIPFTWEESNAYYWQPYALPL |  | ≤ 500 nM |  | 

Continued, in another order:

Row | IC50 [1] | IC50 [2] | IC50 (IL-1RtI; [3]) | Compound | IC50 (IL-1RtI)
8 |  | ≤ 100000 nM | ≤ 500 nM | C[C@@H](O)[C@H](NC(=O)[C@H](Cc1c[nH]c2ccccc12)NC(=O)[C@H](CCC(=O)O)NC(=O)[C@@H](N)Cc1ccccc1)C(=O)N1CCC[C@H]1C(=O)NCC(=O)N[C@@H](Cc1ccc(O)cc1)C(=O)N[C@@H](Cc1c[nH]c2ccccc12)C(=O)N[C@@H](CCC(N)=O)C(=O)N1CC[C@H]1C(=O)N[C@@H](Cc1ccc(O)cc1)C(N)=O [FEWTPGYWQJY--NH2] (H-FEWTPGYWQ[Aze]Y-NH2) | 
9 |  | ≤ 500 nM | ≤ 500 nM | DGYDRWRQSGERYWQPYALPL | 
10 |  | ≤ 500 nM | ≤ 500 nM | ETPFTWEESNAYYWQPYALPL | 
11 |  | ≤ 500 nM |  | FEWTPGYWQPYALPLSD-NH2 [FEWTPGYWQPYALPLSD--NH2] | 
